Key:
[1] = test system: MDR E. coli ST131; assay: Screening of peptidomimetic-antibiotic combinations (growth / growth inhibition); type: cell-based, Escherichia coli; design: key to Growth in combination with RIF / Growth in combination with AZM: Growth (+); growth inhibition (–); settings: for Growth in combination with AZM: peptidomimetic 0.5 μM + azithromycin 1 μg/mL; for Growth in combination with RIF: peptidomimetic 0.5 μM + rifampicin 0.5 μg/mL; for Potentiation in the screening, rifampicin or azithromycin: 0.5 μM peptidomimetic
Procedure: (§1) Minimal inhibitory concentrations (MICs) of peptidomimetics, antibiotics and their combinations were determined by broth microdilution according to the Clinical Laboratory Standards Institute performance standards (Clinical and Laboratory Standards Institute, [2013]). […] Since rifampicin and azithromycin mainly are used to treat infections with Gram-positive pathogens only CLSI clinical breakpoints were available for such bacteria. […] Potentiation of additional antibiotics by peptidomimetics was determined by using commercial 96-well plates containing varied concentrations of standard antibiotics (COMPAN1F; Trek Diagnostic Systems Inc.). The peptidomimetics were added immediately prior to inoculation with pathogen, and then MICs were determined as above. The MICs of peptidomimetic/antibiotic combinations were determined according to the method above, and the concentration ratios were selected based upon checkerboard results with 2:1 and 1:4 ratio of peptidomimetic with rifampicin or azithromycin, respectively. Minimal bactericidal concentrations (MBCs) were determined by using growth-curve assay plates. MIC plates were prepared as above, and then the plates were incubated at 37°C with continuous shaking. Growth was recorded at 10 min intervals as optical density (OD) at 600 nm during 24 h. At 24 h, for wells without growth, a sample was diluted 10-fold in sterile saline (0.9% sodium chloride) and plated onto MHA, following CLSI guidelines (Clinical and Laboratory Standards Institute, [1999]).

[2] = test system: K. pneumoniae ST258; assay: as above; type: cell-based, Klebsiella pneumoniae; design: key to Growth in combination with RIF / Growth in combination with AZM: Growth (+); growth inhibition (–); settings: for Growth in combination with AZM: peptidomimetic 0.5 μM + azithromycin 1 μg/mL; for Growth in combination with RIF: peptidomimetic 0.5 μM + rifampicin 0.5 μg/mL; for Potentiation in the screening, rifampicin or azithromycin: 0.5 μM peptidomimetic
Procedure: as §1

## (NLys)LG(NLys)IW(NLys)I(Nlys)2LF-NH2 [Peptidomimetic 32]
[1]
  Growth in combination with AZM: +
  Growth in combination with RIF: +
[2]
  Growth in combination with AZM: +
  Growth in combination with RIF: +

## (NLys)W(NLys)LF(NLys)2VL(NLys)VLTTG-NH2 [Peptidomimetic 33]
[1]
  Growth in combination with AZM: +
  Growth in combination with RIF: +
[2]
  Growth in combination with AZM: +
  Growth in combination with RIF: +

## Ac-(Lys-NTrp)8-NH2 [Peptidomimetic 19]
[1]
  Growth in combination with AZM: –
  Growth in combination with RIF: +
[2]
  Growth in combination with AZM: +
  Growth in combination with RIF: +

## Ac-(Lys-βNspe)6-NH2 [Peptidomimetic 6]
[1]
  Growth in combination with AZM: –
  Growth in combination with RIF: –
[2]
  Growth in combination with AZM: +
  Growth in combination with RIF: +

## Ac-(Lys-βNspe)8-NH2 [Peptidomimetic 5]
[1]
  Growth in combination with AZM: –
  Growth in combination with RIF: –
[2]
  Growth in combination with AZM: +
  Growth in combination with RIF: +

## Ac-(Lys-βNspe-hArg-βNspe)2-NH2 [Peptidomimetic 10]
[1]; 0.5 μM peptidomimetic + 0.5 μg/mL rifampicin
  Screening result with rifampicin: potentiated rifampicin activity
[1]
  Growth in combination with AZM: +
  Growth in combination with RIF: –
[2]
  Growth in combination with AZM: +
  Growth in combination with RIF: +

## Ac-(NLys-NPhe)8-NH2 [Peptidomimetic 22]
[1]
  Growth in combination with AZM: –
  Growth in combination with RIF: –
[2]
  Growth in combination with AZM: +
  Growth in combination with RIF: +

## Ac-(NLys-Trp)8-NH2 [Peptidomimetic 20]
[1]
  Growth in combination with AZM: +
  Growth in combination with RIF: –
[2]
  Growth in combination with AZM: +
  Growth in combination with RIF: +

## Ac-(azaLys-βNspe-Lys-βNspe)4-NH2 [Peptidomimetic 17]
[1]
  Growth in combination with AZM: +
  Growth in combination with RIF: +
[2]
  Growth in combination with AZM: +
  Growth in combination with RIF: +

## Ac-(bNLys-Trp)8-NH2 [Peptidomimetic 21]
[1]
  Growth in combination with AZM: +
  Growth in combination with RIF: –
[2]
  Growth in combination with AZM: +
  Growth in combination with RIF: +

## Ac-(bNLys-bNPhe)8-NH2 [Peptidomimetic 18]
[1]
  Growth in combination with AZM: +
  Growth in combination with RIF: +
[2]
  Growth in combination with AZM: +
  Growth in combination with RIF: +

## Ac-(hArg-βNPhe)5-NH2 [Peptidomimetic 3]
[1]
  Growth in combination with AZM: +
  Growth in combination with RIF: –
[2]
  Growth in combination with AZM: +
  Growth in combination with RIF: +

## Ac-(hArg-βNPhe)8-NH2 [Peptidomimetic 2]
[1]
  Growth in combination with AZM: +
  Growth in combination with RIF: +
[2]
  Growth in combination with AZM: +
  Growth in combination with RIF: +

## Ac-(hArg-βNchx)6-NH2 [Peptidomimetic 7]
[1]
  Growth in combination with AZM: +
  Growth in combination with RIF: +
[2]
  Growth in combination with AZM: +
  Growth in combination with RIF: +

## Ac-(hArg-βNchx-Lys-βNspe)3-NH2 [Peptidomimetic 8]
[1]
  Growth in combination with AZM: +
  Growth in combination with RIF: +
[2]
  Growth in combination with AZM: +
  Growth in combination with RIF: +

## Ac-(hArg-βNspe)6-(Trp)2-NH2 [Peptidomimetic 16]
[1]
  Growth in combination with AZM: +
  Growth in combination with RIF: +
[2]
  Growth in combination with AZM: +
  Growth in combination with RIF: +

## Ac-(hArg-βNspe)7-NH2 [Peptidomimetic 4]
[1]
  Growth in combination with AZM: +
  Growth in combination with RIF: +
[2]
  Growth in combination with AZM: +
  Growth in combination with RIF: +

## Ac-[(S)-Aoc]-(Lys-βNPhe)6-NH2 [Peptidomimetic 41]
[1]
  Growth in combination with AZM: –
  Growth in combination with RIF: –
[2]
  Growth in combination with AZM: +
  Growth in combination with RIF: +

## Cin-(Lys-Phe)8-NH2 [Peptidomimetic 24]
[1]
  Growth in combination with AZM: +
  Growth in combination with RIF: +
[2]
  Growth in combination with AZM: +
  Growth in combination with RIF: +

## Cin-(Lys-βNspe-hArg-βNspe)3-NH2 [Peptidomimetic 27]
[1]
  Potentiation in the screening, rifampicin or azithromycin: did not exhibit any potentiation activity
  Growth in combination with AZM: +
  Growth in combination with RIF: +
[2]
  Potentiation in the screening, rifampicin or azithromycin: did not exhibit any potentiation activity
  Growth in combination with AZM: +
  Growth in combination with RIF: +

## F5Ph-acetic acid-(5F-Phe)-(Lys-βNspe-hArg-βNspe)3-NH2 [Peptidomimetic 29]
[1]
  Potentiation in the screening, rifampicin or azithromycin: did not exhibit any potentiation activity
  Growth in combination with AZM: +
  Growth in combination with RIF: +
[2]
  Potentiation in the screening, rifampicin or azithromycin: did not exhibit any potentiation activity
  Growth in combination with AZM: +
  Growth in combination with RIF: +

## G(NLys)W(NLys)2II(NLys)VA(NLys)-NH2 [Peptidomimetic 31]
[1]
  Growth in combination with AZM: +
  Growth in combination with RIF: +
[2]
  Growth in combination with AZM: +
  Growth in combination with RIF: +

## Lau-(Lys-βNPhe)6-NH2 [Peptidomimetic 37]
[1]
  Growth in combination with AZM: +
  Growth in combination with RIF: –
[2]
  Growth in combination with AZM: +
  Growth in combination with RIF: +

## Lau-Dap(Lau)-(Lys-βNspe-hArg-βNspe)3-NH2 [Peptidomimetic 40]
[1]
  Growth in combination with AZM: +
  Growth in combination with RIF: +
[2]
  Growth in combination with AZM: +
  Growth in combination with RIF: +

## Oct-(Lys-βNspe)6-NH2 [Peptidomimetic 35]
[1]
  Growth in combination with AZM: +
  Growth in combination with RIF: +
[2]
  Growth in combination with AZM: +
  Growth in combination with RIF: +

## Oct-[(S)-Aoc]-(Lys-βNphe)6-NH2 [Peptidomimetic 42]
[1]
  Growth in combination with AZM: +
  Growth in combination with RIF: +
[2]
  Growth in combination with AZM: +
  Growth in combination with RIF: +

## Pam-(Lys-βNPhe)6-NH2 [Peptidomimetic 36]
[1]
  Growth in combination with AZM: +
  Growth in combination with RIF: +
[2]
  Growth in combination with AZM: +
  Growth in combination with RIF: +

## Pam-(Lys-βNspe)6-NH2 [Peptidomimetic 34]
[1]
  Growth in combination with AZM: +
  Growth in combination with RIF: +
[2]
  Growth in combination with AZM: +
  Growth in combination with RIF: +

## Pam-(Lys-βNspe-hArg-βNspe)2-NH2 [Peptidomimetic 13]
[1]
  Potentiation in the screening, rifampicin or azithromycin: did not exhibit any potentiation activity
  Growth in combination with AZM: +
  Growth in combination with RIF: +
[2]
  Potentiation in the screening, rifampicin or azithromycin: did not exhibit any potentiation activity
  Growth in combination with AZM: +
  Growth in combination with RIF: +

## Pam-(Lys-βNspe-hArg-βNspe)3-NH2 [Peptidomimetic 12]
[1]
  Potentiation in the screening, rifampicin or azithromycin: did not exhibit any potentiation activity
  Growth in combination with AZM: +
  Growth in combination with RIF: +
[2]
  Potentiation in the screening, rifampicin or azithromycin: did not exhibit any potentiation activity
  Growth in combination with AZM: +
  Growth in combination with RIF: +

## Pam-(Lys-βNspe-hArg-βNspe)-NH2 [Peptidomimetic 9]
[1]
  Potentiation in the screening, rifampicin or azithromycin: did not exhibit any potentiation activity
  Growth in combination with AZM: +
  Growth in combination with RIF: +
[2]
  Potentiation in the screening, rifampicin or azithromycin: did not exhibit any potentiation activity
  Growth in combination with AZM: +
  Growth in combination with RIF: +

## Pam-[(S)-Aoc]-(Lys-βNphe)6-NH2 [Peptidomimetic 11]
[1]
  Growth in combination with AZM: +
  Growth in combination with RIF: +
[2]
  Growth in combination with AZM: +
  Growth in combination with RIF: +

## R(Tbt)R(NPhe) [Peptidomimetic 39]
[1]
  Growth in combination with AZM: +
  Growth in combination with RIF: +
[2]
  Growth in combination with AZM: +
  Growth in combination with RIF: +

## R(Tbt)R(hPhe)-NH2 [Peptidomimetic 38]
[1]
  Growth in combination with AZM: +
  Growth in combination with RIF: +
[2]
  Growth in combination with AZM: +
  Growth in combination with RIF: +

## VNW(NLys)2VL(NLys)2II(NLys)VA(NLys)-NH2 [Peptidomimetic 30]
[1]
  Growth in combination with AZM: +
  Growth in combination with RIF: +
[2]
  Growth in combination with AZM: +
  Growth in combination with RIF: +

## p-CF3-benzoyl-(Lys-Phe)8-NH2 [Peptidomimetic 23]
[1]
  Growth in combination with AZM: +
  Growth in combination with RIF: +
[2]
  Growth in combination with AZM: +
  Growth in combination with RIF: +
